Test results: PMC4403042, “Atrial-like cardiomyocytes from human pluripotent stem cells are a robust preclinical model for assessing atrial-selective pharmacology” (EMBO Molecular Medicine, 2015)

Experiments:
NKX2-5-eGFP/w hESCs = assay: Cardiac differentiation of hESCs with RA, flow cytometry for GFP at day 15; type: cell-based, human
Text: A cocktail of cytokines (Fig1A) was used to initiate cardiac differentiation in NKX2-5-eGFP/w hESCs as described previously (Ng et al, [2008]; Elliott et al, [2011]). To direct differentiating hESCs toward an atrial phenotype, timing and concentration of treatment with RA were carefully optimized (Supplementary Fig S1A–C). We hypothesized that specification of CM subtypes in vitro occurs post-mesoderm formation and prior to the onset of cardiac progenitor stage. Accordingly, embryoid bodies (EBs) were supplemented with RA from day 4, just after the transient expression of early cardiac mesoderm marker, MESP1, until day 7, a time point at which key transcription factors such as NKX2.5, GATA4 and MEF2C important for commitment and specification of cardiovascular lineages are activated (Supplementary Fig S1A).
Therefore, treatment of differentiating hESCs with 1 μmol/l of RA from day 4 to 7 was considered to be most suitable for driving atrial differentiation. As a control, every experiment included parallel differentiating cultures treated with 0.002% DMSO (the final concentration in RA-treated cultures) from day 4 to 7 (Fig1A).
A transgenic NKX2-5-eGFP/w hESC line that faithfully reports endogenous NKX2.5 expression by GFP was described previously (Elliott et al, [2011]). […]
Gene expression was determined on the HumanHT-12 v4 Expression BeadChip at ServiceXS, Leiden, The Netherlands. […]

differentiating hESCs = assay: AP characterization of CMs generated from RA-treated differentiations (patch-clamp); type: cell-based, human
Text: To study the electrical phenotype of CMs treated with RA during differentiation, we measured APs of dissociated single cells using the patch-clamp method (Fig3). Representative APs stimulated at 1 Hz are shown in Fig3B. The AP of a CM treated with RA during differentiation (RA) depicts an AP with a fast phase-1 repolarization and a plateau phase with a more negative potential compared to a control (CT) CM (Fig3B).
Spin EBs resulting from control and RA-treated differentiations were dissociated at day 17 to single cells using TrypLE™ Select (Life Technologies) and plated on gelatin-coated coverslips. Electrophysiological measurements were performed 10–14 days after dissociation from intrinsically quiescent single GFP^+ CMs that were able to contract upon field stimulation.
APs and membrane currents from hESC-CMs were recorded with the amphotericin-B-perforated patch-clamp technique at 36 ± 0.2°C using an Axopatch 200B amplifier (Molecular Devices, Sunnyvale, CA, USA). […] AP measurements were low-pass-filtered (cutoff frequency 10 kHz) and digitized at 40 kHz; membrane currents were measured at 1 and 4 kHz, respectively. Capacitance and series resistance were compensated by ≥ 80%, and APs were corrected for the calculated liquid junction potential (Barry & Lynch, [1991]). […]

Compound: CC1=C(/C=C/C(C)=C/C=C/C(C)=C/C(=O)O)C(C)(C)CCC1 [RA, all-trans retinoic acid]
- percentage of GFP+ cells at day 15 (NKX2-5-eGFP/w hESCs; RA 1 μmol/l day 4 to 7, flow cytometry, control 65%): 50%
- effect on cardiac differentiation (percentage of GFP+ cells at day 15) (NKX2-5-eGFP/w hESCs; RA 1–10 nmol/l day 4 to 7): enhanced cardiac differentiation
- APAplat of individual cells (differentiating hESCs; RA group, 1 Hz, CT group > 80 mV): < 80 mV
- cells with atrial-like action potential properties (differentiating hESCs; RA treatment group, of 26 cells): about 85%
